# Biological target: T1, Histamin-H2-Rezeptoren (Cavia porcellus, UniProt P47747)
# T1 construct: in vitro am isolierten rechten Vorhof des Meerschweinchens; from tissue; host or cells: isolated right atrium of the guinea pig
# Assay: Determination of pA2 values in vitro on the isolated right atrium of the guinea pig (H2-antagonistic activity)
# Format: cell-based, Meerschweinchen
# Conditions: read-out: pA2-Werte (converted)
# Description: Eine anerkannte Methode zur Bestimmung H2-antagonistischer Wirksamkeit ist die Ermittlung der pA2-Werte in vitro am isolierten rechten Vorhof des Meerschweinchens.
# T1 sequence (P47747 whole entry): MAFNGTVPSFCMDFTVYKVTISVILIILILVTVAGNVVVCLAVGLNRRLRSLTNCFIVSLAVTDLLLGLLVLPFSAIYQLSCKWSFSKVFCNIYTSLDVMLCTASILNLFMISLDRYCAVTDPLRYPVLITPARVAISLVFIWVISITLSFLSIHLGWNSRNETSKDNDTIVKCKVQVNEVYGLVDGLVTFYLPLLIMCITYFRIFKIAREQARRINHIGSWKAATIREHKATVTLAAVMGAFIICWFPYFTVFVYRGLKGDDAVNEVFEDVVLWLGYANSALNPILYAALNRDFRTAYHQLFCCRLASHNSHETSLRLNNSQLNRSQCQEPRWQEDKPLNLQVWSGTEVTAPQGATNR
row,SMILES,Kb [nM]
1,"Cc1ccc(SNc2nc(NCCCOc3cccc(CN4CCCCC4)c3)n(C)n2)cc1 [Beispiel 1, 1-Methyl-5-[3-[3-(1-piperidinylmethyl)phenoxy]propylamino]-3-(4-methyl-benzolsulfenamido)-1H-1,2,4-triazol]",1.58
2,CNC(=C[N+](=O)[O-])NCCSCc1ccc(CN(C)C)o1 [Ranitidin],155
